{"source": "patent US7867731B2", "about": "“HX2004-6 polypeptide expressed in cancerous cells” (Novartis Vaccines and Diagnostics, Inc., priority 1998, dated 2011)", "format_in_all_cases": "cell-based, human", "key": {"[1]": {"system": "TTK mRNA", "assay": "Antisense depletion of TTK mRNA after transfection, quantitated by real-time PCR", "details": "SW620 cells, oligonucleotide final concentration 30 nM, normalized to beta-actin", "description": "A number of different oligonucleotides complementary to TTK mRNA were designed as potential antisense oligonucleotides, and tested for their ability to suppress expression of TTK. The ability of each designed antisense oligonucleotide to inhibit gene expression was tested through transfection into SW620 colon colorectal carcinoma cells. For each transfection mixture, a carrier molecule, preferably a lipitoid or cholesteroid, was prepared to a working concentration of 0.5 mM in water, sonicated to yield a uniform solution, and filtered through a 0.45 μm PVDF membrane. The antisense or control oligonucleotide was then prepared to a working concentration of 100 μM in sterile Millipore water. The oligonucleotide was further diluted in OptiME™ (Gibco/BRL), in a microfuge tube, to 2 μM, or approximately 20 μg oligo/ml of OptiMEM™. […]\nThe level of target mRNA (TTK) in the transfected cells was quantitated in the cancer cell lines using the Roche LightCycler™ real-time PCR machine. […]\nAn amplification mixture was prepared by mixing in the following order: 1×PCR buffer II, 3 mM MgCl2, 140 μM each dNTP, 0.175 pmol each oligo, 1:50,000 dil of SYBR® Green, 0.25 mg/ml BSA, 1 unit Taq polymerase, and H2O to 20 μl. […] As double stranded PCR product is produced during amplification, the fluorescence from SYBR®) Green increases. […]"}, "[2]": {"system": "SW620 cells", "assay": "Soft agar colony formation assay", "details": "2000 cells per well, oligo added without delivery vehicle", "description": "The effect of TTK expression upon colony formation was tested in a soft agar assay. Soft agar assays were conducted by first establishing a bottom layer of 2 ml of 0.6% agar in media plated fresh within a few hours of layering on the cells. The cell layer was formed on the bottom layer by removing cells transfected as described above from plates using 0.05% trypsin and washing twice in media. The cells were counted in a Coulter counter, and resuspended to 10^6 per ml in media. 10 μl aliquots are placed with media in 96-well plates (to check counting with WST1), or diluted further for soft agar assay. 2000 cells are plated in 800 μl 0.4% agar in duplicate wells above 0.6% agar bottom layer. After the cell layer agar solidifies, 2 ml of media is dribbled on top and antisense or reverse control oligo is added without delivery vehicles. Fresh media and oligos are added every 3-4 days. Colonies are formed in 10 days to 3 weeks. Fields of colonies were counted by eye. Wst-1 metabolism values can be used to compensate for small differences in starting cell number. Larger fields can be scanned for visual record of differences."}, "[3]": {"system": "SW620 cells", "assay": "Cell death by LDH release (Cytotoxicity Detection Kit)", "description": "SW620 cells were transfected as described for proliferation assays. For cytotoxic effect in the presence of cisplatin (cis), the same protocol was followed but cells were left in the presence of 2 μM drug. Each day, cytotoxicity was monitored by measuring the amount of LDH enzyme released in the medium due to membrane damage. The activity of LDH was measured using the Cytotoxicity Detection Kit from Roche Molecular Biochemicals. The data is provided as a ratio of LDH released in the medium vs. the total LDH present in the well at the same time point and treatment (rLDH/tLDH)."}}, "data": [{"substance": "79-9AS (antisense TCCAGTAACTCTTGCGTTCCCATGG; chemistry not given here) [Oligo 79-9AS]", "values": [{"measurement": "depletion of TTK RNA in the transfection assays", "setting": "[1]", "result": "effectively deplete TTK RNA"}, {"measurement": "colony size and number compared to reverse control (79-9RC) or control oligonucleotides (52-3AS, 52-3RC)", "setting": "[2]", "result": "decreased colony size and number"}]}, {"substance": "Oligo 79-9AS: TTK antisense oligonucleotide TCCAGTAACTCTTGCGTTCCCATGG (SEQ ID NO:6) (chemistry not given here)", "values": [{"measurement": "sensitization of the cells to treatment by cisplatin", "setting": "[3]; 2 μM cisplatin, rLDH/tLDH", "result": "does not sensitize the cells to treatment by cisplatin at a detectable level"}, {"measurement": "cell death compared to control oligo (rLDH/tLDH)", "setting": "[3]; day 3", "result": "increased death"}]}, {"substance": "79-5AS (antisense GGGACTCTTCCAAATGGGCATGACT; chemistry not given here) [Oligo 79-5AS]", "values": [{"measurement": "depletion of TTK RNA in the transfection assays", "setting": "[1]", "result": "effectively deplete TTK RNA"}]}]}
